Test results taken from ChEMBL document CHEMBL1201862, “PubChem BioAssay data set” (2004).
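Protocol summary: plate cells (96-well), add compound at 5 concentrations, incubate 48 h, interpolate endpoints linearly. The concentration for 50% growth inhibition is given as GI50.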 Active and inactive are the calls of the source. No stated cut-off is given here; in the data, active = GI50 up to about 1.1 µM and inactive = higher.

Columns and labels:
Test in all cases: growth of human tumour cells (NCI), 48 h
CCRF-CEM = tested on: CCRF-CEM
LOX IMVI = tested on: LOX IMVI
COLO 205 = tested on: COLO 205
HL-60 = tested on: HL-60
SF-295 = tested on: SF-295
SW-620 = tested on: SW-620
ACHN = tested on: ACHN
NCI-H23 = tested on: NCI-H23
HCT-15 = tested on: HCT-15
Malme-3M = tested on: Malme-3M
SK-MEL-28 = tested on: SK-MEL-28
HT-29 = tested on: HT-29
HOP-92 = tested on: HOP-92
RXF 393 = tested on: RXF 393
OVCAR-8 = tested on: OVCAR-8
HCT-116 = tested on: HCT-116
HCC 2998 = tested on: HCC 2998
SR = tested on: SR

SMILES	GI50 (CCRF-CEM)	GI50 (LOX IMVI)	GI50 (COLO 205)	GI50 (HL-60)	GI50 (SF-295)	GI50 (SW-620)	GI50 (ACHN)	GI50 (NCI-H23)	GI50 (HCT-15) [µM]	GI50 (Malme-3M)	GI50 (SK-MEL-28)	GI50 (HT-29)	GI50 (HOP-92)	GI50 (RXF 393)	GI50 (OVCAR-8)	GI50 (HCT-116)	GI50 (HCC 2998)	GI50 (SR)
CCC1C(=O)OCc2c1cc1n(c2=O)C(CC)c2c-1nc1ccccc1c2Cl (stereo not drawn)	11.6 µM (inactive)	33.1 µM (inactive)	16.2 µM (inactive)	22.2 µM (inactive)	23.4 µM (inactive)	24 µM (inactive)	27.4 µM (inactive)	25.6 µM (inactive)	36.6	38.8 µM (inactive)	35 µM (inactive)	24.1 µM (inactive)	26.9 µM (inactive)	–	–	–	–	–
CCOc1ccc(NC(=O)CC2SC(N)=NC2=O)cc1 (stereo not drawn)	> 100 µM (inactive)	> 100 µM (inactive)	> 100 µM (inactive)	> 100 µM (inactive)	> 100 µM (inactive)	> 100 µM (inactive)	> 100 µM (inactive)	> 100 µM (inactive)	–	> 100 µM (inactive)	> 100 µM (inactive)	> 100 µM (inactive)	55.8 µM (inactive)	> 100 µM (inactive)	> 100 µM (inactive)	> 100 µM (inactive)	> 100 µM (inactive)	–
COc1cc([C@@H]2c3cc4c(cc3[C@@H](NC(=O)c3ccc(C(C)=O)cc3)C3COC(=O)[C@@H]32)OCO4)cc(OC)c1O (stereo partly drawn)	0.0849 µM (active)	0.289 µM (active)	3.61 µM (inactive)	0.0867 µM (active)	0.6 µM (active)	0.24 µM (active)	0.189 µM (active)	0.264 µM (active)	2.46	0.254 µM (active)	2.98 µM (inactive)	1.5 µM (inactive)	1.19 µM (inactive)	3.76 µM (inactive)	1.35 µM (inactive)	0.52 µM (active)	1.41 µM (inactive)	–
COc1ccc(OC(C(=O)O)C(C)C)c2c1CCCC2=O (stereo not drawn)	> 100 µM (inactive)	> 100 µM (inactive)	> 100 µM (inactive)	> 100 µM (inactive)	> 100 µM (inactive)	> 100 µM (inactive)	> 100 µM (inactive)	> 100 µM (inactive)	> 100	> 100 µM (inactive)	> 100 µM (inactive)	> 100 µM (inactive)	–	–	> 100 µM (inactive)	> 100 µM (inactive)	> 100 µM (inactive)	–
CC(=O)OC12c3ccccc3C1CCCC21OCCCO1 (stereo not drawn)	> 100 µM (inactive)	> 100 µM (inactive)	> 100 µM (inactive)	–	> 100 µM (inactive)	> 100 µM (inactive)	> 100 µM (inactive)	> 100 µM (inactive)	> 100	> 100 µM (inactive)	> 100 µM (inactive)	> 100 µM (inactive)	–	> 100 µM (inactive)	> 100 µM (inactive)	> 100 µM (inactive)	> 100 µM (inactive)	–
CC1=C2O[B-](c3ccccc3)(c3ccccc3)[O+]=C2C=CN1	34.8 µM (inactive)	52.4 µM (inactive)	45.1 µM (inactive)	27.4 µM (inactive)	48.2 µM (inactive)	44.9 µM (inactive)	27.9 µM (inactive)	36.6 µM (inactive)	32.3	34.6 µM (inactive)	29.6 µM (inactive)	54.7 µM (inactive)	22.1 µM (inactive)	26.4 µM (inactive)	41.2 µM (inactive)	42.6 µM (inactive)	–	–
CN/N=C(/Cc1occc(=O)c1O)C(=O)Nc1ccc(C)c(C)c1	> 100 µM (inactive)	> 100 µM (inactive)	> 100 µM (inactive)	> 100 µM (inactive)	> 100 µM (inactive)	> 100 µM (inactive)	> 100 µM (inactive)	> 100 µM (inactive)	> 100	> 100 µM (inactive)	> 100 µM (inactive)	> 100 µM (inactive)	> 100 µM (inactive)	–	> 100 µM (inactive)	> 100 µM (inactive)	> 100 µM (inactive)	> 100 µM (inactive)
CN(Cc1ccccc1)C(=NC#N)N(C)Cc1ccccc1	–	> 100 µM (inactive)	> 100 µM (inactive)	–	> 100 µM (inactive)	> 100 µM (inactive)	> 100 µM (inactive)	> 100 µM (inactive)	> 100	–	> 100 µM (inactive)	> 100 µM (inactive)	> 100 µM (inactive)	–	> 100 µM (inactive)	> 100 µM (inactive)	> 100 µM (inactive)	–
CC1NC(=O)CC(c2ccccc2)N(N=O)C1c1ccccc1 (stereo not drawn)	23.8 µM (inactive)	37.9 µM (inactive)	26.6 µM (inactive)	24.8 µM (inactive)	30.7 µM (inactive)	20.6 µM (inactive)	–	36.2 µM (inactive)	39.5	52.5 µM (inactive)	40.8 µM (inactive)	29.7 µM (inactive)	16.9 µM (inactive)	22.4 µM (inactive)	34 µM (inactive)	37.1 µM (inactive)	35.4 µM (inactive)	–
O=C1NC(=O)C2C(=O)NC(=O)C1C2(c1ccccc1)c1ccc(Cl)cc1 (stereo not drawn)	> 100 µM (inactive)	> 100 µM (inactive)	> 100 µM (inactive)	> 100 µM (inactive)	> 100 µM (inactive)	> 100 µM (inactive)	> 100 µM (inactive)	> 100 µM (inactive)	> 100	> 100 µM (inactive)	> 100 µM (inactive)	> 100 µM (inactive)	> 100 µM (inactive)	> 100 µM (inactive)	> 100 µM (inactive)	–	> 100 µM (inactive)	–
CN(/N=C/c1cccc2cccnc12)c1ccccc1	> 100 µM (inactive)	> 100 µM (inactive)	> 100 µM (inactive)	> 100 µM (inactive)	99.3 µM (inactive)	> 100 µM (inactive)	99.5 µM (inactive)	59.8 µM (inactive)	> 100	> 100 µM (inactive)	> 100 µM (inactive)	44.2 µM (inactive)	51.9 µM (inactive)	41.9 µM (inactive)	> 100 µM (inactive)	–	86.1 µM (inactive)	–
CC1=NOC(=O)C1/N=N/c1ccc(Br)c(C)c1 (stereo not drawn)	11.8 µM (inactive)	–	25 µM (inactive)	8.39 µM (inactive)	23 µM (inactive)	17.6 µM (inactive)	17.8 µM (inactive)	21.6 µM (inactive)	19.3	18.7 µM (inactive)	26.6 µM (inactive)	36.2 µM (inactive)	17.3 µM (inactive)	19.7 µM (inactive)	17.9 µM (inactive)	17.7 µM (inactive)	24.8 µM (inactive)	–
NC12CC3CC(C1)CC(Cl)(C3)C2	> 100 µM (inactive)	> 100 µM (inactive)	> 100 µM (inactive)	> 100 µM (inactive)	–	> 100 µM (inactive)	> 100 µM (inactive)	> 100 µM (inactive)	–	> 100 µM (inactive)	> 100 µM (inactive)	> 100 µM (inactive)	> 100 µM (inactive)	> 100 µM (inactive)	> 100 µM (inactive)	> 100 µM (inactive)	> 100 µM (inactive)	–
Cc1ccc(S(=O)(=O)NCC2CCCCC2=O)cc1 (stereo not drawn)	> 100 µM (inactive)	> 100 µM (inactive)	> 100 µM (inactive)	45.3 µM (inactive)	> 100 µM (inactive)	> 100 µM (inactive)	–	> 100 µM (inactive)	> 100	> 100 µM (inactive)	> 100 µM (inactive)	10.2 µM (inactive)	24.2 µM (inactive)	> 100 µM (inactive)	> 100 µM (inactive)	> 100 µM (inactive)	–	–
O=C(CCC(=O)C1CCC/C1=N/O)Nc1ccc(Cl)cc1 (stereo not drawn)	> 100 µM (inactive)	–	> 100 µM (inactive)	> 100 µM (inactive)	> 100 µM (inactive)	> 100 µM (inactive)	> 100 µM (inactive)	> 100 µM (inactive)	> 100	> 100 µM (inactive)	> 100 µM (inactive)	> 100 µM (inactive)	> 100 µM (inactive)	–	> 100 µM (inactive)	> 100 µM (inactive)	> 100 µM (inactive)	> 100 µM (inactive)
CN1Cc2c(nc(-c3ccccc3)c[n+]2[O-])N(C)C1	> 100 µM (inactive)	> 100 µM (inactive)	> 100 µM (inactive)	> 100 µM (inactive)	> 100 µM (inactive)	> 100 µM (inactive)	> 100 µM (inactive)	> 100 µM (inactive)	> 100	> 100 µM (inactive)	> 100 µM (inactive)	> 100 µM (inactive)	> 100 µM (inactive)	–	> 100 µM (inactive)	–	> 100 µM (inactive)	–
COc1ccc2c(c1)[n+]([O-])c(-c1c(Cl)cccc1Cl)c(N)[n+]2[O-]	57.7 µM (inactive)	66.1 µM (inactive)	30.2 µM (inactive)	36.8 µM (inactive)	61 µM (inactive)	47.1 µM (inactive)	62.4 µM (inactive)	25.1 µM (inactive)	31.8	21.3 µM (inactive)	29.9 µM (inactive)	55.5 µM (inactive)	45.6 µM (inactive)	–	61.7 µM (inactive)	–	72.3 µM (inactive)	–
C=C1C(=O)C23C(O)CC4C5(C)CCCC4(C(O)OC5)C2C(OC(C)=O)CC1C3O (stereo not drawn)	1.88 µM (inactive)	13.5 µM (inactive)	5.16 µM (inactive)	–	21.5 µM (inactive)	2.91 µM (inactive)	12.2 µM (inactive)	5.41 µM (inactive)	11.7	14.3 µM (inactive)	10.5 µM (inactive)	5 µM (inactive)	3.52 µM (inactive)	–	2.75 µM (inactive)	5.11 µM (inactive)	18.2 µM (inactive)	3.01 µM (inactive)
